# Measured values: patent US20260373274A1, “PEPTIDE-LINKED DRUG DELIVERY SYSTEM” (priority 2022, published 2026)
# “Also recorded” adds a separate entry of the source. Where a SMILES comes first, the peptide text is derived from it. [ ]: non-standard residue; d: D form. The star is where a group is joined. X1 = COc1cc2cc(c1Cl)N(C)C(=O)C[C@H](OC(=O)[C@H](C)N(C)C(=O)CCS*)[C@]1(C)O[C@H]1[C@H](C)[C@@H]1C[C@@](O)(NC(=O)O1)[C@H](OC)/C=C/C=C(\C)C2; βAla = NCCC(=O)O; Mpa = O=C(O)CCS
# Assays:
# [1] = In vitro drug release study, DM1-peptide; type: physicochemical; details: GSH (1 mM), PBS
# Description: In vitro drug release study—DM1-peptide conjugates (10 μM of drug content) were incubated in the presence of the reducing agent GSH (1 mM) in PBS buffer (800 μL). At different time intervals (0, 2, 4, 6, 8, 12, 24, and 48 h), a small amount of solution (100 μL) was taken out for HPLC analysis using C18 analytical column. The amount of DM1 active metabolites released overtime was measured (absorbance detected at 254 nm) and then quantified. The experiment was performed independently in triplicate. A similar experiment was performed to quantify the release of aldox. Aldox-peptide conjugates (100 μM of drug content) were incubated in PBS buffer (800 μL) with different pH (7.4 and 5.5) in a glass vial coated with silica to avoid non-specific adsorption on the reaction vessel surfaces. The amount of drug released over time was then measured as described above (absorbance detected at 480 nm). For accurate quantification, all the results were normalized compared to a DOX control incubated in similar conditions.
# [2] = system: kidney injury molecule-1 (KIM-1) and neutrophil gelatinase-associated lipocalin (NGAL); assay: Nephrotoxicity studies, urinary renal injury biomarkers by ELISA; type: in vivo, BALB/c mice; details: single i.v. dose, 0.75 mg/kg of drug content
# Description: (§1) The level of the acute renal injury biomarkers, neutrophil gelatinase-associated lipocalin (NGAL) and kidney injury molecule-1 (KIM-1) in the urine samples, were measured using ELISA assays according to the manufacturer's instructions (R&D Systems, Minneapolis, MN). […] All the animals (n=3/group) were euthanized at the end of the treatment and the kidneys were collected and fixed in 10% neutral buffered formalin. The tissues were then processed, embedded in paraffin, sectioned, and stained with H&E. Immunohistochemistry (IHC) for kidney injury (NGAL and KIM-I) was also performed.
# kidneys = assay: Nephrotoxicity studies, kidney histology and immunohistochemistry (NGAL and KIM-1); type: in vivo, BALB/c mice; details: 3 days after i.v. administration; CIS 10 mg/kg, DM1-Bdd 0.75 mg/kg of drug content
# Description: (§2) Slides were then counterstained with Hematoxylin.
# as §1
# [3] = system: orthotopic human UMUC-3 tumors; assay: Therapeutic efficacy for treating BC, orthotopic UMUC-3/GFP-Luc xenograft
# Excerpt: These animals were immediately euthanized I week after the completion of the treatment schedule.
# as §2
# Renca/GFP-Luc tumors = assay: Kidney cancer treatment, orthotopic Renca/GFP-Luc syngeneic model; type: in vivo, female BALB/c mice; murine tumor cells
# Description: Evaluation of DM1-Bdd for Kidney cancer treatment—Renca/GFP-Luc cells ([…]) in PBS (3 μL) were orthotopically implanted into the kidney capsules of 7- to 9-week-old female BALB/c mice (Jackson Laboratory, Bar Harbor, ME) as previously described. The tumor progression was confirmed by bioluminescence imaging. […] The animals were monitored for tumor growth inhibition and survival as described above. Additional mice were used for histopathological analysis (n=4/group).
# as §2
# [4] = Hematology, complete blood count; type: in vivo, female BALB/c mice; details: i.v. weekly for 3 weeks; DM1/DM1-Bdd 0.75 mg/kg, CIS 10 mg/kg
# Description: (§3) Necropsy—Seven- to 9-week-old female BALB/c mice (n=4/group) were treated weekly with PBS, DM1, DM1-peptide (0.75 mg/kg of drug content), or cisplatin (10 mg/kg) via tail-vein injection (150 μL). At the end of a 3-week treatment, mice were euthanized. The organs/tissues were harvested, fixed in 10% neutral buffered formalin for 2 days. Bones were decalcified in a formic acid solution (Surgipath Decalcifier I; Leica Biosystems, Weltzar, Germany). The samples were then embedded in paraffin, sectioned (5 μm), and stained with H&E for examination by an ACVP board certified anatomic pathologist.
# (§4) Hematology and biochemistry—Blood samples were collected via cardiac puncture. A complete blood count, including red blood cell, white blood cell, reticulocyte and platelet counts, with an automated differential leukocyte count, was performed using an IDEXX Procyte DX hematology analyzer (iDEXX, Westbrook. ME). Blood smears were prepared, stained with modified Wright's stain, examined in a blinded fashion by a board-certified veterinary clinical pathologist (T.S.), and imaged using a Nikon Eclipse TE2000-U fluorescent microscope equipped with a photometrics CoolSNAP HQ^2 camera (Nikon Corporation, Tokyo, Japan). The blood was also centrifuged (1,500×G) for 15 min to obtain the serum for biochemical analysis using a Beckman Coulter AU680 analyzer (Beckman Coulter, Brea, CA).
# Serum biochemistry = type: in vivo, female BALB/c mice; details: i.v. weekly for 3 weeks; DM1/DM1-Bdd 0.75 mg/kg, CIS 10 mg/kg
# Excerpt: as §3, with “At” for “Necropsy—Seven- to 9-week-old female BALB/c mice (n=4/group) were treated weekly with PBS, DM1, DM1-peptide (0.75 mg/kg of drug content), or cisplatin (10 mg/kg) via tail-vein injection (150 μL). At”
# as §4
# [5] = system: major organs (liver, spleen, heart, lungs, and kidneys); assay: Necropsy, histopathology of major organs; type: in vivo, female BALB/c mice; details: i.v. weekly for 3 weeks
# Excerpt: as §3, with “At” for “Necropsy—Seven- to 9-week-old female BALB/c mice (n=4/group) were treated weekly with PBS, DM1, DM1-peptide (0.75 mg/kg of drug content), or cisplatin (10 mg/kg) via tail-vein injection (150 μL). At”
# [6] = i.v., 0.75 mg/kg weekly for 3 weeks
# [7] = i.v., 0.75 mg/kg of drug content weekly for 3 weeks
# [8] = one week after completing the treatment course
smiles,measurement,setting,value
COc1cc2cc(c1Cl)N(C)C(=O)C[C@H](OC(=O)[C@H](C)N(C)C(=O)CCSSCCC(=O)NCCC(=O)N[C@H](CC(=O)O)C(=O)N[C@H](CC(=O)O)C(=O)NCCC(=O)N[C@H](CC(=O)O)C(=O)N[C@H](CC(=O)O)C(=O)NCCC(=O)N[C@H](CC(=O)O)C(=O)N[C@H](CC(=O)O)C(=O)NCCC(=O)N[C@H](CC(=O)O)C(=O)N[C@H](CC(=O)O)C(N)=O)[C@]1(C)O[C@H]1[C@H](C)[C@@H]1C[C@@](O)(NC(=O)O1)[C@H](OC)/C=C/C=C(\C)C2 [DM1-Bdd] ([Mpa](X1)[βAla][dD][dD][βAla][dD][dD][βAla][dD][dD][βAla][dD][dD]-NH2),drug release in a reducing environment,[1],enabling drug release in a reducing environment
same,time for KIM-1 and NGAL to return to basal levels,[2],≤ 3 days
same,"levels of KIM-1 and NGAL in the urine, 1 day",[2]; 1 day,slightly increased
same,histologic examination of kidneys,kidneys,did not reveal any abnormalities in the kidneys
same,immunoreactivity of kidney sections for KIM-1 and NGAL,kidneys,no elevation of the immunoreactivity
same,treatment outcome of i.v. compared to i.t. administration,[3]; 0.75 mg/kg of drug content weekly for 3 weeks,better treatment outcome; also recorded: more effective
same,anti-tumor activity of i.v. DM1-Bdd versus i.v. DM1,[3]; bioluminescence imaging during 3 once-per-week treatments,similar
same,survival after 100 days,[3]; [6],36%
same,tumor growth inhibition compared to i.t. MIT,[3]; [6],more effective in inhibiting tumor growth
same,animal survival compared to i.t. MIT,"[3]; i.v., 0.75 mg/kg weekly for 3 weeks, 0.75 mg/kg",prolonged animal survival; also recorded: improved the overall survival
same,animals for which treatment was curative,"[3]; i.v., 210 days",21%
same,gross and histologic evidence of tumors in survivor mice,"[3]; i.v., 210 days",lacked gross and histologic evidence (using GFP and Ki67 immunostaining) of tumors
same,animals which lacked gross and histologic evidence of tumors,"[3]; i.v., 210 days after tumor implantation",3 animals
same,tumor size by histology,"[3]; i.v., end of treatment",smaller
same,GFP-positive cells,"[3]; i.v., immunohistochemistry",fewer GFP-positive cells
same,proportion of cells expressing Ki67,"[3]; i.v., immunohistochemistry",lower proportion of cells expressing the proliferation marker (Ki67)
same,survival benefit compared to the free drug,Renca/GFP-Luc tumors; i.v.,significant survival benefit compared to the free drug
same,bioluminescence signals in the majority of the animals,Renca/GFP-Luc tumors; [7],decreased bioluminescence signals
same,survival after 160 days,Renca/GFP-Luc tumors; [7],50%
same,tumor progression,Renca/GFP-Luc tumors; [7],inhibit tumor progression
same,tumor size,Renca/GFP-Luc tumors; [7],reduced tumor size
same,animals lacking gross or histologic evidence of the tumor,Renca/GFP-Luc tumors; [8],approximately 50%
same,tumor in kidneys by histological examination,Renca/GFP-Luc tumors; [8],Minimal tumor was present
same,"red blood cell, leukocyte, or platelet counts or morphologic features",[4],"did not affect the red blood cell, leukocyte, or platelet counts or morphologic features"
same,"hepatotoxicity: release of ALP, ALT, and AST",Serum biochemistry,"not hepatotoxic, with no significant alteration in the release of ALP, ALT, and AST"
same,urea nitrogen/creatinine ratio,Serum biochemistry,normal
same,overall toxicity,[5],did not induce unwanted toxicity; also recorded: safe toxicity profile
same,"histopathology of liver, spleen, heart, lungs, or kidneys","[5]; DM1/DM1-Bdd 0.75 mg/kg, CIS 10 mg/kg","no morphological evidence of injury in the liver, spleen, heart, lungs, or kidneys"
